The text below walks through data of patent publication US7868135B2, “Compositions of lipopeptide antibiotic derivatives and methods of use thereof” (priority 2003, dated 2011).

Each structure is given as a SMILES string. Starred links: 1 amine or outer side, 2 acyl side, 3 side chain; linkers in the order of their positions; H or OH if unused. Positions of bridges follow the written chain, without caps; N, C: chain ends. Non-standard residues stand in square brackets, D forms with d. Residues, ends and D or L forms follow the SMILES beside them. ξ: configuration not given here. *: point of attachment. Hexadecanesulfonyl = CCCCCCCCCCCCCCCCS(=O)(=O)*; ξAbu(βξ-NH2) = CC(N[*:3])C(N[*:1])C(=O)[*:2]; Phac(3-amino) = O=C(Cc1cccc(N[*:1])c1)[*:2]; X36 = CC(NC(=O)CN(C)C)C(N[*:1])C(=O)[*:2]; Pentadecanoyl = CCCCCCCCCCCCCCC(=O)*; ξAsp(βξ-Me) = CC(C(=O)O)C(N)C(=O)O; Palmitoyl = CCCCCCCCCCCCCCCC(=O)*; Tridecanoyl = CCCCCCCCCCCCC(=O)*; X1 = O=C(Cc1ccc(N[*:1])cc1)[*:2]; Myristoyl = CCCCCCCCCCCCCC(=O)*; ξAbu(3ξ-NH2) = CC(N)C(N)C(=O)O; Undecanoyl = CCCCCCCCCCC(=O)*; Lauroyl = CCCCCCCCCCCC(=O)*; Decanoyl = CCCCCCCCCC(=O)*; X19 = CCCCCCCCCCS(=O)(=O)*; 3Abz = Nc1cccc(C(=O)O)c1; Pip = O=C(O)[CH]1CCCCN1; ξD = NC(CC(=O)O)C(=O)O; ξPip = O=C(O)C1CCCCN1; ξV = CC(C)C(N)C(=O)O; ξP = O=C(O)C1CCCN1

The test system of this test is Staphylococcus aureus (MSSA). The conditions noted are these: 24 h. In short, it runs like this:
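Broth microdilution MIC per NCCLS M7-A6 with doubling serial dilutions, in cation-adjusted Mueller-Hinton broth supplemented with 0.625 mM calcium.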
As to `CCCCCCCCCCCCCCC(=O)NC(CC(=O)O)C(=O)NC1C(=O)N2CCCCC2C(=O)NC(C(C)C(=O)O)C(=O)NC(CC(=O)O)C(=O)NCC(=O)NC(CC(=O)O)C(=O)NCC(=O)NC(C(C)NC(=O)CN(C)C)C(=O)NC(C(C)C)C(=O)N2CCCC2C(=O)NC1C` (stereo not drawn) [Compound 268, C15-Amphomycin-9-(N,N-Dimethylglycine)] (Pentadecanoyl-D[ξAbu(βξ-NH2)][Pip][ξAsp(βξ-Me)]DGDG[X36]VP; lactam 2-C; configuration not given here), the MIC (commonly the lowest concentration found to suppress growth) came to 1 µg/mL. With `CCCCCCCCCCS(=O)(=O)NCC(=O)NC(CC(=O)O)C(=O)NC1C(=O)N2CCCCC2C(=O)NC(C(C)C(=O)O)C(=O)NC(CC(=O)O)C(=O)NCC(=O)NC(CC(=O)O)C(=O)NCC(=O)NC(C(C)N)C(=O)NC(C(C)C)C(=O)N2CCCC2C(=O)NC1C` (stereo not drawn) [Compound 269, CH3—(CH2)9—SO2-Gly-Amphomycin] (X19-GD[ξAbu(βξ-NH2)][Pip][ξAsp(βξ-Me)]DGDG[ξAbu(3ξ-NH2)]VP; lactam 3-C; configuration not given here), the MIC is 4 to 8 µg/mL.

Consider `CCCCCCCCCCCCCCCCS(=O)(=O)N[C@@H](Cc1ccccc1)C(=O)NC(CC(=O)O)C(=O)NC1C(=O)N2CCCCC2C(=O)NC(C(C)C(=O)O)C(=O)NC(CC(=O)O)C(=O)NCC(=O)NC(CC(=O)O)C(=O)NCC(=O)NC(C(C)N)C(=O)NC(C(C)C)C(=O)N2CCCC2C(=O)NC1C` (stereo partly drawn) [Compound 270, CH3—(CH2)15—SO2-Phe-Amphomycin] (Hexadecanesulfonyl-F[ξD][ξAbu(βξ-NH2)][ξPip][ξAsp(βξ-Me)][ξD]G[ξD]G[ξAbu(3ξ-NH2)][ξV][ξP]; lactam 3-C), for which the MIC is 16 to 32 µg/mL. Turning to `CCCCCCCCCCCCCCNC(=O)NC(CC(=O)O)C(=O)NC1C(=O)N2CCCCC2C(=O)NC(C(C)C(=O)O)C(=O)NC(CC(=O)O)C(=O)NCC(=O)NC(CC(=O)O)C(=O)NCC(=O)NC(C(C)NC(=O)CNC(=O)[C@@H](N)CCCCN)C(=O)NC(C(C)C)C(=O)N2CCCC2C(=O)NC1C` (stereo partly drawn) [Compound 277, CH3—(CH2)13—NH—C(═O)-Amphomycin-9-Gly-Lys], the minimal inhibitory concentration (MIC) was 0.5 to 1 µg/mL. Then `CCCCCCCCCCCCCCNC(=O)NC(CC(=O)O)C(=O)NC1C(=O)N2CCCCC2C(=O)NC(C(C)C(=O)O)C(=O)NC(CC(=O)O)C(=O)NCC(=O)NC(CC(=O)O)C(=O)NCC(=O)NC(C(C)NC(=O)CN)C(=O)NC(C(C)C)C(=O)N2CCCC2C(=O)NC1C` (stereo not drawn) [Compound 279, CH3—(CH2)13—NH—C(═O)-Amphomycin-9-Gly], with 0.5 µg/mL.

For the molecule `CCCCCCCCCCCCCCCC(=O)Nc1ccc(CC(=O)NC(CC(=O)O)C(=O)NC2C(=O)N3CCCCC3C(=O)NC(C(C)C(=O)O)C(=O)NC(CC(=O)O)C(=O)NCC(=O)NC(CC(=O)O)C(=O)NCC(=O)NC(C(C)N)C(=O)NC(C(C)C)C(=O)N3CCCC3C(=O)NC2C)cc1` (stereo not drawn) [Compound 281, C16-(p-Apa)-Amphomycin] (Palmitoyl-[X1]D[ξAbu(βξ-NH2)][Pip][ξAsp(βξ-Me)]DGDG[ξAbu(3ξ-NH2)]VP; lactam 3-C; configuration not given here), the MIC amounted to 2 µg/mL.

Regarding `CCCCCCCC(=O)Nc1ccc(C(=O)NC(CC(=O)O)C(=O)NC2C(=O)N3CCCCC3C(=O)NC(C(C)C(=O)O)C(=O)NC(CC(=O)O)C(=O)NCC(=O)NC(CC(=O)O)C(=O)NCC(=O)NC(C(C)N)C(=O)NC(C(C)C)C(=O)N3CCCC3C(=O)NC2C)cc1` (stereo not drawn) [Compound 282, C8-PABA-Amphomycin], the MIC came to 32 µg/mL. As to `CCCCCCCCCC(=O)Nc1ccc(C(=O)NC(CC(=O)O)C(=O)NC2C(=O)N3CCCCC3C(=O)NC(C(C)C(=O)O)C(=O)NC(CC(=O)O)C(=O)NCC(=O)NC(CC(=O)O)C(=O)NCC(=O)NC(C(C)N)C(=O)NC(C(C)C)C(=O)N3CCCC3C(=O)NC2C)cc1` (stereo not drawn) [Compound 283, C10-PABA-Amphomycin], the MIC amounted to 2 µg/mL. Next, `CCCCCCCCCCC(=O)Nc1ccc(C(=O)NC(CC(=O)O)C(=O)NC2C(=O)N3CCCCC3C(=O)NC(C(C)C(=O)O)C(=O)NC(CC(=O)O)C(=O)NCC(=O)NC(CC(=O)O)C(=O)NCC(=O)NC(C(C)N)C(=O)NC(C(C)C)C(=O)N3CCCC3C(=O)NC2C)cc1` (stereo not drawn) [Compound 284, C11-PABA-Amphomycin]: 16 µg/mL. Next, `CCCCCCCCCCCCC(=O)Nc1ccc(C(=O)NC(CC(=O)O)C(=O)NC2C(=O)N3CCCCC3C(=O)NC(C(C)C(=O)O)C(=O)NC(CC(=O)O)C(=O)NCC(=O)NC(CC(=O)O)C(=O)NCC(=O)NC(C(C)N)C(=O)NC(C(C)C)C(=O)N3CCCC3C(=O)NC2C)cc1` (stereo not drawn) [Compound 285, C13-PABA-Amphomycin]: 0.25 µg/mL; `CCCCCCCCCCCNC(=O)NCCC(=O)NC(CC(=O)O)C(=O)NC1C(=O)N2CCCCC2C(=O)NC(C(C)C(=O)O)C(=O)NC(CC(=O)O)C(=O)NCC(=O)NC(CC(=O)O)C(=O)NCC(=O)NC(C(C)N)C(=O)NC(C(C)C)C(=O)N2CCCC2C(=O)NC1C` (stereo not drawn) [Compound 286, CH3—(CH2)10—NH—C(═O)-(β-Ala)-Amphomycin]: 2 µg/mL. Next, `CCCCCCCCCCCCCCNC(=O)NCCCC(=O)NC(CC(=O)O)C(=O)NC1C(=O)N2CCCCC2C(=O)NC(C(C)C(=O)O)C(=O)NC(CC(=O)O)C(=O)NCC(=O)NC(CC(=O)O)C(=O)NCC(=O)NC(C(C)N)C(=O)NC(C(C)C)C(=O)N2CCCC2C(=O)NC1C` (stereo not drawn) [Compound 291, CH3—(CH2)13—NH—C(═O)-(GABA)-Amphomycin]: 2 µg/mL; `CCCCCCCCCC(=O)Nc1cccc(C(=O)NC(CC(=O)O)C(=O)NC2C(=O)N3CCCCC3C(=O)NC(C(C)C(=O)O)C(=O)NC(CC(=O)O)C(=O)NCC(=O)NC(CC(=O)O)C(=O)NCC(=O)NC(C(C)N)C(=O)NC(C(C)C)C(=O)N3CCCC3C(=O)NC2C)c1` (stereo not drawn) [Compound 293, C10-(M-Aminobenzoyl)-Amphomycin] ({Decanoyl-3Abz}-D[ξAbu(βξ-NH2)][Pip][ξAsp(βξ-Me)]DGDG[ξAbu(3ξ-NH2)]VP; lactam 2-C; configuration not given here): 2 µg/mL; `CCCCCCCCCCC(=O)Nc1cccc(C(=O)NC(CC(=O)O)C(=O)NC2C(=O)N3CCCCC3C(=O)NC(C(C)C(=O)O)C(=O)NC(CC(=O)O)C(=O)NCC(=O)NC(CC(=O)O)C(=O)NCC(=O)NC(C(C)N)C(=O)NC(C(C)C)C(=O)N3CCCC3C(=O)NC2C)c1` (stereo not drawn) [Compound 294, C11-(M-Aminobenzoyl)-Amphomycin] ({Undecanoyl-3Abz}-D[ξAbu(βξ-NH2)][Pip][ξAsp(βξ-Me)]DGDG[ξAbu(3ξ-NH2)]VP; lactam 2-C; configuration not given here): 0.5 µg/mL. On to `CCCCCCCCCCCCCCNC(=O)NCCC(=O)NC(CC(=O)O)C(=O)NC1C(=O)N2CCCCC2C(=O)NC(C(C)C(=O)O)C(=O)NC(CC(=O)O)C(=O)NCC(=O)NC(CC(=O)O)C(=O)NCC(=O)NC(C(C)N)C(=O)NC(C(C)C)C(=O)N2CCCC2C(=O)NC1C` (stereo not drawn) [Compound 295, CH3—(CH2)13—NH—C(═O)-(β-Ala)-Amphomycin], for which the MIC came out at 0.5 µg/mL. Next, `CCCCCCCCCCCC(=O)Nc1cccc(C(=O)NC(CC(=O)O)C(=O)NC2C(=O)N3CCCCC3C(=O)NC(C(C)C(=O)O)C(=O)NC(CC(=O)O)C(=O)NCC(=O)NC(CC(=O)O)C(=O)NCC(=O)NC(C(C)N)C(=O)NC(C(C)C)C(=O)N3CCCC3C(=O)NC2C)c1` (stereo not drawn) [Compound 296, C12-(M-Aminobenzoyl)-Amphomycin] ({Lauroyl-3Abz}-D[ξAbu(βξ-NH2)][Pip][ξAsp(βξ-Me)]DGDG[ξAbu(3ξ-NH2)]VP; lactam 2-C; configuration not given here): 0.25 µg/mL. Turning to `CCCCCCCCCCCCC(=O)Nc1cccc(C(=O)NC(CC(=O)O)C(=O)NC2C(=O)N3CCCCC3C(=O)NC(C(C)C(=O)O)C(=O)NC(CC(=O)O)C(=O)NCC(=O)NC(CC(=O)O)C(=O)NCC(=O)NC(C(C)N)C(=O)NC(C(C)C)C(=O)N3CCCC3C(=O)NC2C)c1` (stereo not drawn) [Compound 297, C13-(M-Aminobenzoyl)-Amphomycin] ({Tridecanoyl-3Abz}-D[ξAbu(βξ-NH2)][Pip][ξAsp(βξ-Me)]DGDG[ξAbu(3ξ-NH2)]VP; lactam 2-C; configuration not given here), the minimal inhibitory concentration (MIC) was determined as 0.25 µg/mL. Then `CCCCCCCCCCCCC(=O)Nc1ccc(CC(=O)NC(CC(=O)O)C(=O)NC2C(=O)N3CCCCC3C(=O)NC(C(C)C(=O)O)C(=O)NC(CC(=O)O)C(=O)NCC(=O)NC(CC(=O)O)C(=O)NCC(=O)NC(C(C)N)C(=O)NC(C(C)C)C(=O)N3CCCC3C(=O)NC2C)cc1` (stereo not drawn) [Compound 300, C13-(p-Apa)-Amphomycin] (Tridecanoyl-[X1]D[ξAbu(βξ-NH2)][Pip][ξAsp(βξ-Me)]DGDG[ξAbu(3ξ-NH2)]VP; lactam 3-C; configuration not given here), with 0.225 µg/mL. Then `CCCCCCCCCCCCCC(=O)Nc1ccc(CC(=O)NC(CC(=O)O)C(=O)NC2C(=O)N3CCCCC3C(=O)NC(C(C)C(=O)O)C(=O)NC(CC(=O)O)C(=O)NCC(=O)NC(CC(=O)O)C(=O)NCC(=O)NC(C(C)N)C(=O)NC(C(C)C)C(=O)N3CCCC3C(=O)NC2C)cc1` (stereo not drawn) [Compound 301, C14-(p-Apa)-Amphomycin] (Myristoyl-[X1]D[ξAbu(βξ-NH2)][Pip][ξAsp(βξ-Me)]DGDG[ξAbu(3ξ-NH2)]VP; lactam 3-C; configuration not given here), with 2 µg/mL; and `CCCCCCCCCCCCCC(=O)Nc1cccc(CC(=O)NC(CC(=O)O)C(=O)NC2C(=O)N3CCCCC3C(=O)NC(C(C)C(=O)O)C(=O)NC(CC(=O)O)C(=O)NCC(=O)NC(CC(=O)O)C(=O)NCC(=O)NC(C(C)N)C(=O)NC(C(C)C)C(=O)N3CCCC3C(=O)NC2C)c1` (stereo not drawn) [Compound 303, C14-(M-Apa)-Amphomycin] (Myristoyl-[Phac(3-amino)]D[ξAbu(βξ-NH2)][Pip][ξAsp(βξ-Me)]DGDG[ξAbu(3ξ-NH2)]VP; lactam 3-C; configuration not given here), with 0.5 µg/mL. On to `CCCCCCCCCCCNC(=O)NCCCC(=O)NC(CC(=O)O)C(=O)NC1C(=O)N2CCCCC2C(=O)NC(C(C)C(=O)O)C(=O)NC(CC(=O)O)C(=O)NCC(=O)NC(CC(=O)O)C(=O)NCC(=O)NC(C(C)N)C(=O)NC(C(C)C)C(=O)N2CCCC2C(=O)NC1C` (stereo not drawn) [Compound 304, CH3—(CH2)10—NH—C(═O)-GABA-Amphomycin], for which the MIC is 4 µg/mL.
